No end group written: not given here. Bounds are passed on as bounds.

The target of assay [1] is T1, A. sobria ProAP (Aeromonas sobria, UniProt P46547). Description: ProAP activity assay (kinetic constants of A. sobria ProAP against selected peptide substrates). In kind it is biochemical. The following applies: role: substrate; for kcat/KM: PBS pH 7.4, 2 mM DTT, 0-500 μM peptide, 0.5-25 nM ProAP, mean ± SD of three independent sets of experiments; for change in catalytic activity on replacement of His at P3′ with Gly or Ser: peptides 1 and 9 or peptides 3 and 6 compared; for decrease in catalytic activity on substitution of Ala for Gly at P2′: peptide 6 compared with 9, peptide 10 compared with 8. Here is the method:
A typical assay reaction (total volume of 100 μL) contained PBS (10 mM Na2HPO4, 1.8 mM KH2PO4, 137 mM NaCl, 2.7 mM KCl, 2 mM DTT pH 7.4) and 0-500 μM peptide substrate. The reaction was initiated by the addition of ProAP (final concentration of 0.5-25 nM) and quenched after 5-30 min by the addition of 100 μL of 10% TFA. The reaction mixture was centrifuged at 15,000 rpm in a microcentrifuge for 5 min, and the clear supernatant was analyzed on a Waters Acquity UPLC-MS equipped with a BEH C18 column (1.7 μm, 2.1 mm I.D., 100 mm length). The column was eluted with a linear gradient of acetonitrile (0-25% over 8 min) in water containing 0.05% TFA. The percentage of substrate-to-product conversion was determined by comparing the peak areas of the remaining substrate and the reaction product (monitored at 280 nm) and kept at ≤20%. The initial rates were calculated from the conversion percentages and plotted versus [S]. Data fitting against the Michaelis-Menten equation V=Vmax[S]/(KM+[S]) or the simplified equation V=kcat[E][S]/KM (when KM>>[S]) gave the kinetic constants kcat, KM, and/or kcat/KM.
To confirm the screening results, we individually synthesized a panel of peptides and determined their kinetic properties toward A. sobria ProAP (Table 1). Peptides 1-6 are representative (preferred) sequences selected from the library, while peptide 7 is the consensus sequence based on the screening results. Peptide 8 is a variant of peptide 7, containing a proline (instead of a lysine) at the P5′ position. We anticipated that a proline residue at this position would improve the proteolytic stability of the peptide. Peptide 9 is a variant of peptide 6 (substitution of Gly for Ala at the P2′ position) and was designed to test the importance of a Gly residue at the P2′ position. Peptide 10 is also a variant of peptide 6 but contains a Pro at position P5′ (in place of Lys) to impart proteolytic stability. Peptide 11 is derived from a colorless bead during library screening (Table C) and expected to be a poor substrate of ProAP (“negative” control). All peptides contained a Tyr at the P6′ position, to facilitate concentration measurement as well as monitoring the enzymatic reactions by UPLC (at 280 nm).

For assay [2], the target named is T1, A. sobria ProAP. Briefly: Proline removal from peptide 8 by ProAP before N-terminal labeling (UPLC-MS). In kind it is biochemical. Here is the method: Peptide (100 μM) was incubated with ProAP (4 μM) in 20 mM Tris, pH 8.5, 100 mM NaCl for 1 h at 37° C. One half of the reaction (40 μL) was set aside for later UPLC-MS analysis, while the other half was mixed with 40 μL of FAM-CO-SR (400 μM), sodium 2-mercaptoethanesulfonate (2 mM), and TCEP (2.5 mM) in PBS (H 7.5). The mixture was incubated at room temperature for 5 h and analyzed by UPLC-MS.
We first tested the feasibility of generating an N-terminal cysteine by ProAP and specific N-terminal conjugation with a peptide as substrate. […] The reaction mixture was next treated with an excess of fluorescein 2-mercaptoethanesulfonate thioester (FAM-CO-SR; 4 equivalents) in the presence of 2-mercaptoethanesulfonate (2-MES) and TCEP in a phosphate buffer (pH 7.5).

T1 sequence (P46547 whole entry, added parts left off): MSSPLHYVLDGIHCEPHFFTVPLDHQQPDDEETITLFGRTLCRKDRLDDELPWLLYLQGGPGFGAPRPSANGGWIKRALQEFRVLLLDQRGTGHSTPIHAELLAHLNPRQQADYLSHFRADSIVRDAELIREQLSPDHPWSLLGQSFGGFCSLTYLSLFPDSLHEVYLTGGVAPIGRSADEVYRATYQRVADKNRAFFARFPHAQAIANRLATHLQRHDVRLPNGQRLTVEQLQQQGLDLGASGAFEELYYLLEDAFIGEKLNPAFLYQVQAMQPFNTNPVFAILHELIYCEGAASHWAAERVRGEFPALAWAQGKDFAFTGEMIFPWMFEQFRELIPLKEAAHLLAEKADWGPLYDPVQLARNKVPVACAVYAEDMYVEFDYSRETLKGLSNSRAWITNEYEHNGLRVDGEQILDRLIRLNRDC

With PCASKAY-NH2 [Peptide 3, PCASKAY], at A. sobria ProAP [1], the kcat/KM was 3.8 ± 0.4 ×10^5 M^−1 s^−1 and the “change in catalytic activity on replacement of His at P3′ with Gly or Ser” value was at most 1.3 fold. As for PCGSSKY-NH2 [Peptide 2, PCGSSKY], the kcat/KM at A. sobria ProAP [1] is on record as 5.8 ± 1.0 ×10^5 M^−1 s^−1. On the same count and under the same terms, with PCEFTRY-NH2 [Peptide 5, PCEFTRY] the figure was 3.2 ± 0.9 ×10^5 M^−1 s^−1. As for PCGHKAY-NH2 [Peptide 9, PCGHKAY], the kcat/KM on A. sobria ProAP [1] is 7.2 ± 2.6 ×10^5 M^−1 s^−1. PCGGKAY-NH2 [Peptide 1, PCGGKAY]: on A. sobria ProAP [1], the kcat/KM was 7.0 ± 1.2 ×10^5 M^−1 s^−1 and the “change in catalytic activity on replacement of His at P3′ with Gly or Ser” value is recorded as at most 1.3 fold. Regarding `O=C(O)CCP(CCC(=O)O)CCC(=O)O` [TCEP, tris(carboxyethyl)phosphine, reference compound], the “inhibition of A. sobria ProAP activity” value at A. sobria ProAP [2] (role: inhibitor) is recorded as “strongly inhibits”.

Consider PCHDETY-NH2 [Peptide 11, PCHDETY], for which, on A. sobria ProAP [1], the kcat/KM was 0.038 ± 0.010 ×10^5 M^−1 s^−1. Besides, the “less active than peptides 1-10” value on A. sobria ProAP [1] (negative control compared with peptides 1-10) is on record as ~ 2 orders of magnitude. As to PCGHKPY-NH2 [Peptide 8, PCGHKPY], at A. sobria ProAP [2] (role: substrate, 100 μM peptide, 4 μM ProAP, 60 min), the “disappearance of peptide on treatment with ProAP” value is on record as “complete disappearance”. Besides, on A. sobria ProAP [1], the kcat/KM was 8.3 ± 3.2 ×10^5 M^−1 s^−1. Regarding PCAHKPY-NH2 [Peptide 10, PCAHKPY], at A. sobria ProAP [1], the kcat/KM was 2.8 ± 0.8 ×10^5 M^−1 s^−1 and the “decrease in catalytic activity on substitution of Ala for Gly at P2′” value is 2- to 3 fold.

PCSHKGY-NH2 [Peptide 4, PCSHKGY]: at A. sobria ProAP [1], the kcat/KM is 3.2 ± 0.1 ×10^5 M^−1 s^−1. Consider PCAHKAY-NH2 [Peptide 6, PCAHKAY], for which, on A. sobria ProAP [1], the “decrease in catalytic activity on substitution of Ala for Gly at P2′” value is 2- to 3 fold. Turning to PCGHKKY-NH2 [Peptide 7, PCGHKKY], on A. sobria ProAP [1], the kcat/KM is recorded as 8.2 ± 0.7 ×10^5 M^−1 s^−1.

For the origin of these results see patent US20260337656A1, “METHODS OF SYNTHESIZING PEPTIDES WITH FREE N-TERMINAL CYSTEINE AND PRODUCTS THEREOF” (OHIO STATE INNOVATION FOUNDATION, priority 2022, published 2026).
